# According to patent publication US20110251158A1, “FULLERENE THERAPIES FOR INFLAMMATION AND INHIBITION OF BUILD-UP OF ARTERIAL PLAQUE” (Luna Innovations Incorporated, priority 2008, published 2011):
# What was measured:
# [1] = system: Lyn; test: Lyn gene (microarray) and protein (Western blotting) expression in MC; type: cell-based, human
# Experimental: Mast cells (1×10^7 cell/condition; each condition performed in triplicate) were incubated with or without fullerene derivatives as above and incubated with or without anti-FcεRI antibodies for 10 minutes, supernatants were removed (to remove pre-formed mediators), […] Cells were centrifuged, the supernatant and the pellet immediately frozen and microarray performed using the Human Whole Genome OneArray™ gene expression profiling service (Phalanx Biotech Group). Separate samples, assayed in parallel were lysed and protein expression analyzed by Western blotting or flow cytometry (CD45) as described in Kepley, C. L., Pfeiffer, J., Wilson, B. W., Schwartz, L. B., and Oliver, J. M. J. Leukocyte Biol. 64, 474-483 (1998).
# In order to examine the genes most affected by fullerene derivative preincubation the resulting values were sorted and filtered the following way. First, the mean (±SD) of the six values from each condition for each of the 30,970 genes was calculated. Second, only normalized value intensities of >100 were included so that follow up detection of protein levels would be more likely to be successful. […]
# [2] = Ames test; settings: not shown
# Text: Taken together, the derivatives described herein are not cytotoxic to several cell lines tested and appear to have no acute in vivo cytotoxic effects.
# [3] = system: AKT phosphorylation; test: Western blotting of FcεRI-activated phospho-signaling in MC: AKT; type: cell-based, human; settings: 10 μg/mL overnight
# Experimental: Cell lysate preparation and Western blotting were performed using a protocol optimized for extracting phospho-proteins from human MC. Tkaczyk, C., Metcalfe, D. D., and Gilfillan, A. M. J. Immunol. Methods 268, 239-243 (2002). Following activation, cells were lysed directly in boiling denaturing sample buffer consisting of tris-buffered saline with triton-X-100 (0.5%) and protease and phosphatase inhibitors. The cell suspension was then passed through a 20-gauge needle, boiled, and centrifuged to remove cell debris. Proteins were separated on 8% or 10% NuPage Tris-Bis gels using Licor running buffer. Western blotting was performed using Licor blocking buffer and IR800 and IR700 anti-rabbit F(ab)2 secondary Abs (1:1000). Primary Abs were from Cell Signaling Technologies or Santa Cruz unless otherwise noted. Band intensities were captured using the Odyssey Imaging System and bands quantified by measuring the number of pixels in each band using a box drawn for the same area of measurement for each separate blot. The band intensity was then normalized for loading by dividing the number of pixels in each band with the housekeeping band intensity (β-actin) performed on the same blot.
# MC were pretreated with Inos or TGA (10 μg/mL) overnight at 37° C./6% CO2. The next day washed cells were activated with or without anti-FcεRI (1 μg/mL) for the indicated times and lysed using protocols described above. Two separate 10% Tris-Glycine gels were used for sodium dodecyl sulfate polyacrylamide gel electrophoresis (SDS-PAGE) and Western blotting performed with the indicated phosphorylation-specific (i.e., phosph-Lyn) antibodies. To ensure equal loading, an antiactin antibody was used in parallel. The intensity of each band was detected and quantified using an Odyssey imaging system. Band intensities are presented as a ratio compared to antiactin band intensities probed in the same lane and presented for each time point in the colored graphs on the right side. Results are representative of three separate experiments. […]
# [4] = system: mice; test: Liver toxicity: serum ALT and AST activity after FD injection; type: in vivo; settings: tail vein injection
# Experimental: To examine potential toxicity, alanine aminotranferease (ALT) and aspartate aminotransferase (AST) were measured in serum. These enzymes leak out into the general circulation when the liver is injured. Mice were treated with or without 1000 μg/100 μl (50 times more than used for the in vivo study) of TGA or Inos by tail vein injection and i.p. After two and 14 days mice were sacrificed and blood, obtained by cardiac puncture. ALT and AST activity were measured as described in Booth, G., Newham, P., Barlow, R., Raines, S., Zheng, B., and Han, S. Autoimmunity 41, 512-521 (2008). Data is presented as an average of 4 (Untreated) or 4 (Treated) mice±Standard Deviation.
# [5] = system: FcεRI activated genes; test: Gene microarray of FcεRI-activated MC; type: cell-based, human
# Experimental: Mast cells (1×10^7 cell/condition; each condition performed in triplicate) were incubated with or without fullerene derivatives as above and incubated with or without anti-FcεRI antibodies for 10 minutes, supernatants were removed (to remove pre-formed mediators), and fresh warm medium containing anti-FcεRI antibodies (14 ml) added for 2 hours. Cells were centrifuged, the supernatant and the pellet immediately frozen and microarray performed using the Human Whole Genome OneArray™ gene expression profiling service (Phalanx Biotech Group). Separate samples, assayed in parallel were lysed and protein expression analyzed by Western blotting or flow cytometry (CD45) as described in Kepley, C. L., Pfeiffer, J., Wilson, B. W., Schwartz, L. B., and Oliver, J. M. J. Leukocyte Biol. 64, 474-483 (1998).
# For microarray RNA was isolated using the Ambion MessageAmp aRNA kit; all samples passed the internal quality control checks. For hybridization each sample was run in triplicate. Optical density was measured by NanoDrop ND-1000. The ratio of absorbance at 260 nm and 280 nm provides an estimate of RNA purity. […] The reactive amino group of 5-(3-aminoallyl)-UTP/5-(3-aminoallyl)-dUTP was used to conjugate the purified aRNA/cDNA with the NHS-CyDye. Labeling efficiency was calculated by the concentration of CyDye and aRNA/cDNA which was above 10. For hybridization 10 μg Cy5-labeled aRNA was utilized by the Phalanx Hybridization Protocol Array Version HOA 4.3.
# Pearson correlation tables (R values) for each technical repeat were calculated from raw log 2 intensity (R) and normalized log 2 intensity (N) values and compared to each other. Only probes with P value (detected) less than 0.05 were included in the calculation. […] Greater than 95% of the samples had R values of 0.8 or greater indicating strong correlation between the two parameters.
# In order to examine the genes most affected by fullerene derivative preincubation the resulting values were sorted and filtered the following way. First, the mean (±SD) of the six values from each condition for each of the 30,970 genes was calculated. […]
substance,measurement,setting,value
C70-tetraglycolic acid [TGA],Lyn gene expression levels reduced,[1]; at 2 hours,51%
same,Lyn inhibition at the protein level,[1]; at 6 hours,92%
same,mutagenic potential,[2],No mutagenic potential
same,inhibited AKT phosphorylation,[3]; 3 minutes anti-FcεRI,10%
same,inhibited AKT phosphorylation,[3]; 5 minutes anti-FcεRI,36%
same,inhibited AKT phosphorylation,[3]; 10 minutes anti-FcεRI,43%
same,Alanine aminotransferase (ALT) Activity,[4]; Day 2,29.2
same,Aspartate aminotransferase (AST) Activity,[4]; Day 2,8.5
same,Alanine aminotransferase (ALT) Activity,[4]; Day 14,36.7
same,Aspartate aminotransferase (AST) Activity,[4]; Day 14,29.8
same,genes whose FcεRI-induced activation was reduced,[5],over 1000
same,genes decreased at least 20% compared to non treated cells,[5]; 2 hours FcεRI activation,"2,603"
same,genes with greater than 50% inhibition,[5]; 2 hours FcεRI activation,515
